Assay results from article PMC12635197, “Discovery of first-in-class inhibitors of the TRF1:TIN2 protein:protein interaction by fragment screening” (Scientific Reports, 2025).

How the values were obtained:
[1] = Fragment solubility assay (quantitative 1H NMR); assay type: physicochemical; settings: NMR buffer, overnight incubation, 1H NMR quantified against 1 mM caffeine standard
TRF1TRFH = molecular target: T1, TRF1TRFH (Homo sapiens, UniProt P54274); test: LO-NMR R2KD assay; assay type: binding; settings: global KD shared across 1H NMR peaks, single experiment, 95% CI in parentheses; 2 µM TRF1TRFH
T1 construct: encoding residues 47–268, UniProt identifier P54274-1; His6-MBP (TEV-cleavable) (N, cleaved yes); made in house; host or cells: E. coli BL21-CodonPlus(DE3)-RIL
T1 sequence (P54274 47-268): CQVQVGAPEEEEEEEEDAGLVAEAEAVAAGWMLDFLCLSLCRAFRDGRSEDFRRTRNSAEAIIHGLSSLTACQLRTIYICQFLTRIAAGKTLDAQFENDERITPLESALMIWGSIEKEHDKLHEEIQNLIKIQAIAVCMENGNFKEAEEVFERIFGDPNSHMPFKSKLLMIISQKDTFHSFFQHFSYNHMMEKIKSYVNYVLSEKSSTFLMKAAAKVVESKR
Experimental: Recent work by Liu and colleagues introduced a novel LO-NMR method that can be used to quantitatively determine the dissociation constant (KD) of a ligand for a protein from measured R2 values of ligand nuclei at a range of ligand concentrations.
The R2KD assay was carried out as described by Liu et al.[40]. A Bruker SamplePro liquid handler was used to prepare 10 samples: 8 samples containing an increasing ligand concentration from 50 to 500 µM whilst maintaining a constant TRF1TRFH concentration (2 µM final); and two samples containing ligand only at 200 µM and 400 µM. All ten samples were prepared from stock solutions of ligand, DMSO, protein and buffer alone using the Bruker SamplePro liquid handler prior to transfer to 3-mm NMR tubes.
NMR data were collected at 298 K on a Bruker Avance Neo 600-MHz spectrometer using the Bruker Topspin 4.0 software. T2 relaxation experiments were performed using the standard Bruker CPMG pulse program with Excitation Sculpting incorporated to suppress water signal. The spin-echo period (delay-180°-delay) was set to 1 ms (d20 = 500 µs), and the relaxation delay (d1) was set to 10 s. The sudo-2D experiment contained nine slices with the spin echo period repeated at the following times: 4, 20, 100, 200, 300, 500, 700, 1000, and 2000 ms. T2 relaxation data were processed using the MestReNova 14.1 data analysis module to obtain integrals of individual[1]H-NMR signals, which were used to calculate R2 with the equation I = I0e^(−tR2). GraphPad Prism 9.0.0 was used to fit R2 values of individual compound peaks to obtain an overall (shared) KD value from all peaks of the compound.

[2] = molecular target: T2, TRF1TRFH:TIN2-FAM interaction (Homo sapiens, UniProt P54274); test: Fluorescence polarisation (FP) competition assay, TIN2-FAM displacement; assay type: binding; settings: 0.6 µM TRF1TRFH, 25 nM TIN2-FAM; mean of three independent experiments, 95% CI in parentheses
T2 construct: encoding residues 47–268, UniProt identifier P54274-1; His6-MBP (TEV-cleavable) (N, cleaved yes); made in house; host or cells: E. coli BL21-CodonPlus(DE3)-RIL (TRF1TRFH); probe peptide from Pepceuticals
T2 sequence (P54274 47-268): T1 sequence (P54274 47-268)
Experimental: To complement the biophysical R2KD assay, we developed a fluorescence polarisation (FP) competition assay based on a TIN2TBM peptide labelled with an N-terminal 5(6)-carboxyfluorescein (6-FAM) fluorophore. […] The NMR hit analogues were then titrated against constant concentrations of TRF1TRFH and TIN2-FAM (0.6 µM and 25 nM, respectively).
A TIN2TBM peptide was obtained from Pepceuticals with a 5(6)-carboxyfluorescein (FAM) fluorophore added to the N-terminus for fluorescence studies. To determine the assay window for the FP assay, the TIN2-FAM probe was prepared as a 16-µM stock in aqueous buffer and titrated from 0 to 400 nM against either a constant concentration of TRF1TRFH (0.5 µM in FP buffer) or FP buffer alone (25 mM HEPES-NaOH pH 7.5, 100 mM NaCl, 1 mM TCEP, 0.05% w/v CHAPS). Samples were prepared to a final volume of 10 µL in Packard Proxiplate 384 F plus plates; plates were incubated in darkness at room temperature for 1 h prior to measuring fluorescence intensities and calculating FP values, using a BMG Labtech PHERAstar FSX plate reader with an FP 485 520 520 optic module. A settling time of 0.3 s was used, and the number of flashes was set to 200 for FP measurements. For each plate, a target mP of 35 was set and the gain adjusted on the TIN2-FAM probe control well minus protein.
For the FP competition assay, the unlabelled compounds (from 50-mM DMSO stocks) were first dispensed in duplicate into wells of a Proxiplate 384 F Plus plate using an Echo 550 acoustic liquid handler to give a 13-point concentration range from 0.2 to 500 µM. Wells were then backfilled to 250 nL with DMSO before the addition of 5 µL of 2x TRF1TRFH (0.6 µM final concentration) and 4.75 µL 2x TIN2-FAM (25 nM final concentration). Plates were spun and sealed prior to incubation for 1 h in darkness. FP measurements were then carried out as described above.

In the case of COc1cc(COc2ccc(S(=O)(=O)[O-])c3ccccc23)cc(OC)c1.[Na+] [Compound 40], the “Kin. Sol.” value [1] is reported as 320 µM, the Kd (TRF1TRFH) is reported as 29 µM and the IC50 [2] is reported as 67 µM.
